Measurements published in patent publication US20240116928A1 (Gilead Sciences, Inc., priority 2022, published 2024).

Columns and labels:
CD73 [1] = molecular target: T1, CD73 (Homo sapiens, UniProt P21589); assay: MDA-MB-231 Cell Based CD73 Activity Assay (DMEM); set-up: endogenous in cells; host or cells: MDA-MB-231-GFP; details: MDA-MB-231-GFP cells, DMEM with 10% human plasma, overnight compound treatment, 200 uM AMP, 100 mins
T1 sequence (P21589 27-549): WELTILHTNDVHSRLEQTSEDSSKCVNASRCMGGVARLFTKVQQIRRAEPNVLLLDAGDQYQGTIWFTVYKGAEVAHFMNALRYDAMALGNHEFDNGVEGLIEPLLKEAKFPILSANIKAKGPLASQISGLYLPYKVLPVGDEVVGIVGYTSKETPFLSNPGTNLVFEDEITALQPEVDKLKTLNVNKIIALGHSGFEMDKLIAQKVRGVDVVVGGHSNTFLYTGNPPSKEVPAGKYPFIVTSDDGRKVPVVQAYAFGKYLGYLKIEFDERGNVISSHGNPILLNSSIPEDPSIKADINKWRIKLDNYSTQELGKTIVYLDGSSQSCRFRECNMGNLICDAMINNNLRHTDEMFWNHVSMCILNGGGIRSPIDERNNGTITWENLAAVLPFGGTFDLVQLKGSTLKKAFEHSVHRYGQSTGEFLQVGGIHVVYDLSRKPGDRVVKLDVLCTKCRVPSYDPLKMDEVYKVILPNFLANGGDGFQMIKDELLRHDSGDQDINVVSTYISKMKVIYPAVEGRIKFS
Protocol: Cells were plated into assay plate with compounds pre-spotted, for an overnight compound treatment. 50 uL of 400 uM AMP (final concentration will be 200 uM) was added using Bio-tek dispenser. Plates were incubated for 100 mins. 20 uL of supernatant was transferred into 384-well NUNC plate pre-filled with 60 ul Quench buffer (80% organic and 20% water+0.1% FA) with internal standard. The plates were spun down at 4500 rpm for 20 mins, then 20 ul of supernatant was transferred to another Nunc plate prefilled with 80 ul of water. The samples were analyzed using Rapid fire.

CD73 [2] = molecular target: T1, CD73; assay: CD73 Biochemical IC50 Assay; details: CD73 enzyme (R&D system) final 0.3 nM, final AMP 15 uM, 60 mins incubation, Rapid fire
Protocol: CD73 Biochemical IC50 Assay
Compound serial dilutions were pre-spotted into Thermo Nunc assay plate. 50 μL CD73 enzyme buffer (CD73 purchased from R&D system=0.6 nM, 25 mM Tris, pH 7.4, 5 mM MgCl2, 1 mM NaH2PO4) was added into the assay plate and incubated for 15 mins. […] After incubation for 60 mins, the supernatant 20 uL was transferred into 384-well NUNC plate pre-filled with 60 ul Quench buffer (80% organic and 20% water+0.1% FA) with internal standard. The plate was spun down at 4500 rpm for 20 mins, then 20 μl of supernatant was transferred to another Nunc plate prefilled with 80 μl of water. The samples were run using Rapid fire.

| EC50 (CD73 [1]) | IC50 (CD73 [2]) | Compound |
| --- | --- | --- |
| 33.7 nM | 12.7 nM | CCc1nc(-c2c[nH]c(=O)[nH]c2=O)cc(N2C[C@H](Oc3cc4c(cn3)cnn4CC(F)(F)F)C(F)(F)C2)n1 [Example 1, (S)-6-(3,3-difluoro-4-((1-(2,2,2-trifluoroethyl)-1H-pyrazolo[4,3-c]pyridin-6-yl)oxy)pyrrolidin-1-yl)-2-ethyl-[4,5′-bipyrimidine]-2′,4′ (1′H,3′H)-dione] |
| > 50 nM | 25.7 nM | O=c1[nH]cc(-c2cc(N3C[C@H](Oc4cc5c(cn4)cnn5CC(F)(F)F)C(F)(F)C3)nc(C3CC3)n2)c(=O)[nH]1 [Example 3, (S)-2-cyclopropyl-6-(3,3-difluoro-4-((1-(2,2,2-trifluoroethyl)-1H-pyrazolo[4,3-c]pyridin-6-yl)oxy)pyrrolidin-1-yl)-[4,5′-bipyrimidine]-2′,4′ (1′H,3′H)-dione] |
| 35.7 nM | 7.14 nM | O=c1[nH]cc(-c2cc(N3C[C@H](Oc4cc5c(cn4)cnn5CC(F)(F)F)C(F)(F)C3)nc(C(F)(F)F)n2)c(=O)[nH]1 [Example 6, (S)-6-(3,3-difluoro-4-((1-(2,2,2-trifluoroethyl)-1H-pyrazolo[4,3-c]pyridin-6-yl)oxy)pyrrolidin-1-yl)-2-(trifluoromethyl)-[4,5′-bipyrimidine]-2′,4′ (1′H,3′H)-dione] |
| 1.07 nM | 4.28 nM | Cc1nc(-c2c[nH]c(=O)[nH]c2=O)cc(N2C[C@H](Oc3ccnc(C4(C(F)(F)F)CC4)c3)C(F)(F)C2)n1 [Example 7, (S)-6-(3,3-difluoro-4-((2-(1-(trifluoromethyl)cyclopropyl)pyridin-4-yl)oxy)pyrrolidin-1-yl)-2-methyl-[4,5′-bipyrimidine]-2′,4′ (1′H,3′H)-dione] |
| 49 nM | 41 nM | Cc1cc(N2C[C@H](Oc3cc4c(cn3)cnn4CC(F)(F)F)C(F)(F)C2)cc(-c2c[nH]c(=O)[nH]c2=O)n1 [Example 10, (S)-5-(4-(3,3-difluoro-4-((1-(2,2,2-trifluoroethyl)-1H-pyrazolo[4,3-c]pyridin-6-yl)oxy)pyrrolidin-1-yl)-6-methylpyridin-2-yl)pyrimidine-2,4(1H,3H)-dione] |
| 22.5 nM | 12.8 nM | O=c1[nH]cc(-c2cc(N3C[C@H](Oc4cc5c(cn4)cnn5CC(F)(F)F)C(F)(F)C3)cc(C(F)(F)F)n2)c(=O)[nH]1 [Example 11, (S)-5-(4-(3,3-difluoro-4-((1-(2,2,2-trifluoroethyl)-1H-pyrazolo[4,3-c]pyridin-6-yl)oxy)pyrrolidin-1-yl)-6-(trifluoromethyl)pyridin-2-yl)pyrimidine-2,4(1H,3H)-dione] |
| 27.1 nM | 8.95 nM | COc1cc(N2C[C@H](Oc3cc4c(cn3)cnn4CC(F)(F)F)C(F)(F)C2)cc(-c2c[nH]c(=O)[nH]c2=O)n1 [Example 12, (S)-5-(4-(3,3-difluoro-4-((1-(2,2,2-trifluoroethyl)-1H-pyrazolo[4,3-c]pyridin-6-yl)oxy)pyrrolidin-1-yl)-6-methoxypyridin-2-yl)pyrimidine-2,4(1H,3H)-dione] |
| > 50 nM | 31.3 nM | Cc1nc(-c2c[nH]c(=O)[nH]c2=O)cc(N2C[C@H](Oc3cc(C(F)(F)F)ccn3)C(F)(F)C2)n1 [Example 13, 5-[6-[(4S)-3,3-difluoro-4-[[4-(trifluoromethyl)-2-pyridyl]oxy]pyrrolidin-1-yl]-2-methyl-pyrimidin-4-yl]-1H-pyrimidine-2,4-dione] |
| > 50 nM | 4.92 nM | Cc1nc(-c2c[nH]c(=O)[nH]c2=O)cc(N2C[C@H](Oc3cc(OC(F)F)ccn3)C(F)(F)C2)n1 [Example 14, (S)-6-(4-((4-(difluoromethoxy)pyridin-2-yl)oxy)-3,3-difluoropyrrolidin-1-yl)-2-methyl-[4,5′-bipyrimidine]-2′,4′ (1′H,3′H)-dione] |
| > 50 nM | 10.2 nM | Cc1nc(-c2c[nH]c(=O)[nH]c2=O)cc(N2C[C@H](Oc3cc(C(F)F)c(F)cn3)C(F)(F)C2)n1 [Example 15, (S)-6-(4-((4-(difluoromethyl)-5-fluoropyridin-2-yl)oxy)-3,3-difluoropyrrolidin-1-yl)-2-methyl-[4,5′-bipyrimidine]-2′,4′ (1′H,3′H)-dione] |
| > 50 nM | 6.28 nM | Cc1nc(-c2c[nH]c(=O)[nH]c2=O)cc(N2C[C@H](Oc3ccc(F)c(C(F)F)c3)C(F)(F)C2)n1 [Example 16, (S)-6-(4-(3-(difluoromethyl)-4-fluorophenoxy)-3,3-difluoropyrrolidin-1-yl)-2-methyl-[4,5′-bipyrimidine]-2′,4′ (1′ H,3′ H)-dione] |
| > 50 nM | 4.21 nM | Cc1nc(-c2c[nH]c(=O)[nH]c2=O)cc(N2C[C@H](Oc3ccc(F)c(OC(F)F)c3)C(F)(F)C2)n1 [Example 17, (S)-6-(4-(3-(difluoromethoxy)-4-fluorophenoxy)-3,3-difluoropyrrolidin-1-yl)-2-methyl-[4,5′-bipyrimidine]-2′,4′ (1′H,3′H)-dione] |
| 32.9 nM | 5.7 nM | Cc1nc(-c2c[nH]c(=O)[nH]c2=O)cc(N2C[C@H](Oc3ccnc(C(F)(F)F)c3)C(F)(F)C2)n1 [Example 18, (S)-6-(3,3-difluoro-4-((2-(trifluoromethyl)pyridin-4-yl)oxy)pyrrolidin-1-yl)-2-methyl-[4,5′-bipyrimidine]-2′,4′ (1′ H,3′ H)-dione] |
| 26 nM | 6.26 nM | Cc1nc(-c2c[nH]c(=O)[nH]c2=O)cc(N2C[C@H](Oc3ccc4cnn(CC(F)(F)F)c4c3)C(F)(F)C2)n1 [Example 19, (S)-6-(3,3-difluoro-4-((1-(2,2,2-trifluoroethyl)-1H-indazol-6-yl)oxy)pyrrolidin-1-yl)-2-methyl-[4,5′-bipyrimidine]-2′,4′ (1′H,3′H)-dione] |
| > 50 nM | 8.7 nM | Cc1nc(-c2c[nH]c(=O)[nH]c2=O)cc(N2C[C@H](Oc3ccncc3)C(F)(F)C2)n1 [Example 20, (S)-6-(3,3-difluoro-4-(pyridin-4-yloxy)pyrrolidin-1-yl)-2-methyl-[4,5′-bipyrimidine]-2′,4′ (1′H,3′H)-dione] |
| 39.7 nM | 4.97 nM | Cc1nc(-c2c[nH]c(=O)[nH]c2=O)cc(N2C[C@H](Oc3ccnc(C(F)F)c3)C(F)(F)C2)n1 [Example 21, (S)-6-(4-((2-(difluoromethyl)pyridin-4-yl)oxy)-3,3-difluoropyrrolidin-1-yl)-2-methyl-[4,5′-bipyrimidine]-2′,4′ (1′ H,3′ H)-dione] |
| > 50 nM | 14.4 nM | Cc1nc(-c2c[nH]c(=O)[nH]c2=O)cc(N2C[C@H](Oc3cc4c(cnn4CC(F)(F)F)cc3F)C(F)(F)C2)n1 [Example 23, (S)-6-(3,3-difluoro-4-((5-fluoro-1-(2,2,2-trifluoroethyl)-1H-indazol-6-yl)oxy)pyrrolidin-1-yl)-2-methyl-[4,5′-bipyrimidine]-2′,4′ (1′H,3′H)-dione] |
| > 50 nM | 7.67 nM | Cc1cc(O[C@H]2CN(c3cc(-c4c[nH]c(=O)[nH]c4=O)nc(C)n3)CC2(F)F)ccn1 [Example 24, (S)-6-(3,3-difluoro-4-((2-methylpyridin-4-yl)oxy)pyrrolidin-1-yl)-2-methyl-[4,5′-bipyrimidine]-2′,4′ (1′H,3′H)-dione] |
| 5.31 nM | 4 nM | Cc1nc(-c2c[nH]c(=O)[nH]c2=O)cc(N2C[C@H](Oc3cc(C4(C(F)(F)F)CC4)ccn3)C(F)(F)C2)n1 [Example 25, (S)-6-(3,3-difluoro-4-((4-(1-(trifluoromethyl)cyclopropyl)pyridin-2-yl)oxy)pyrrolidin-1-yl)-2-methyl-[4,5′-bipyrimidine]-2′,4′ (1′H,3′H)-dione] |
| > 50 nM | 7.06 nM | Cc1nc(OCC(F)(F)COC(=O)NC(C)C)cc(-c2c[nH]c(=O)[nH]c2=O)n1 [Example 26] |
| 6.38 nM | 7.16 nM | Cc1nc(-c2c[nH]c(=O)[nH]c2=O)cc(N2C[C@H](Oc3cc4c(cn3)c(C)nn4CC(F)(F)F)C(F)(F)C2)n1 [Example 28, (S)-6-(3,3-difluoro-4-((3-methyl-1-(2,2,2-trifluoroethyl)-1H-pyrazolo[4,3-c]pyridin-6-yl)oxy)pyrrolidin-1-yl)-2-methyl-[4,5′-bipyrimidine]-2′,4′ (1′H,3′H)-dione] |
